This is an account of results in US20220017512A1 (SHANGHAI ENNOVABIO PHARMACEUTICALS CO., LTD., priority 2018, published 2022).

Common to all, as to type: biochemical
Assay [1] has as its target T1, recombinant human TRKA (G595R) (Homo sapiens, UniProt P04629, G595R).
T1 construct: purchased SignalChem
The assay can be described thus: In vitro activity test on mutant TRKA (G595R) (HTRF KinEASE TK). Particulars: 4.5 μM ATP, 30 min. As to the method:
Biological Test Example 2 In Vitro Activity Test on Mutant TRKA (G595R), TRKA (G667C) and TRKC (G623R)
The recombinant human TRKA (G595R), TRKA (G667C) and TRKC (G623R) proteins were purchased from SignalChem. HTRF kinEASE TK kit was purchased from CisbioBioassays. Synergy Neo 2 of Biotek was used to read the plate.
The tested compound was subjected to 4-fold serial dilution to reach a final concentration of 1 μM to 0.004 nM (10 concentrates), duplicates for each concentration; and 1% DMSO was present in the detection reaction.
0.12 ng/μL TRKA (G595R) kinase, 1 μM TK Substrate-biotin polypeptide substrate, 4.5 μM ATP, 1× enzymatic buffer, 5 mM MgCl2, and 1 mm DTT. The detection plate was White Proxiplate384-Plus plate (PerkinElmer), and incubated at room temperature for 30 min, and the assay volume was 10 μL.
(§1) 10 μL of detection reagent was added to the plate (containing 0.125 μM SA-XL665 and 5 μL 1×TK-Antibody) and incubated overnight at room temperature, and Synergy Neo 2 was used to read the plate.
The value of 665/620 Ratio minus the value of negative control wells without enzyme, then the obtained value was converted according to the following formula into inhibition rate (%)=(1−Ratiotest/Ratiomax)×100%. Ratiomax was a positive control without tested compound, and Ratiotest was the value of each concentration of different compounds. IC50 (nM) data was obtained by 4 parameter curve fitting (see Table 1).
For orientation: TR-FRET usually uses a lanthanide donor and a delayed reading to cut background.

In another assay the target is T2, Recombinant human TRKA (Homo sapiens, UniProt P04629).
T2 construct: purchased Carna Biosciences
T2 sequence (P04629 33-796): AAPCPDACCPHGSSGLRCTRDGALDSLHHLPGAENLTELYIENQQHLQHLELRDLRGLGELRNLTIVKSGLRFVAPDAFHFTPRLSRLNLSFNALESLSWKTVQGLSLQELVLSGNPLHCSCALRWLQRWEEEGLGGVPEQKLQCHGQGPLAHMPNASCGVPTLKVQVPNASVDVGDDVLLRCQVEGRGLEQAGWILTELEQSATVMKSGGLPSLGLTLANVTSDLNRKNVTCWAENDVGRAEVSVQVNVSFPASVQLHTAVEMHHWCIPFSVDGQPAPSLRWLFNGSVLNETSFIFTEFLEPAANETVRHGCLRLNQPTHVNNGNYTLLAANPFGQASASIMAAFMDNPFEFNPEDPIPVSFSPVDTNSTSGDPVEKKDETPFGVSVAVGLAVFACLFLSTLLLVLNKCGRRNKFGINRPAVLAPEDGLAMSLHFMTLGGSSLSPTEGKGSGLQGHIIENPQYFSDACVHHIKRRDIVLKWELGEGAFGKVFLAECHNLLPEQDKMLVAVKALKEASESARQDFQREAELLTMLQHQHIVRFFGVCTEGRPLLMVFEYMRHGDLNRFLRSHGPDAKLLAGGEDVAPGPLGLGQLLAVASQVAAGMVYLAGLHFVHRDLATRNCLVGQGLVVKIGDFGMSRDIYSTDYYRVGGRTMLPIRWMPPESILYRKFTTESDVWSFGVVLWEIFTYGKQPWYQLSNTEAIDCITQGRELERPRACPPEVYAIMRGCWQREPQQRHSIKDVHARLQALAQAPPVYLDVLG
The assay can be described thus: In vitro activity test on TRKA kinase (HTRF KinEASE TK). Particulars: 14.68 μM ATP, 40 min. On the procedure: (§2) Biological Test Example 1 In Vitro Activity Test on TRKA, TRKB, TRKC Kinase
(§3) Recombinant human TRKA, TRKB, TRKC proteins were purchased from Carna Biosciences. HTRF KinEASE TK kit was purchased from Cisbio Bioassays. Synergy Neo 2 of Biotek was used to read the plate.
(§4) The tested compound was subjected to 3-fold serial dilution to reach a final concentration of 1 μM to 0.05 nM (10 concentrations), duplicates for each concentration; and the DMSO concentration in the detection reaction was 1%.
0.2 ng/μL TRKA protein kinase, 1 μM TK Substrate-biotin polypeptide substrate, 14.68 μM ATP, 1× enzymatic buffer, 5 mM MgCl2, and 1 mM DTT. The detection plate was White Proxiplate384-Plus plate (PerkinElmer), and incubated at room temperature for 40 min, and the assay volume was 10 μL.
as §1
(§5) The 665/620 Ratio was converted according to the following formula into inhibition rate (%)=(1−Ratiotest/Ratiomax)×100%. Ratiomax was a positive control without tested compound, and Ratiotest was the value of each concentration of different compounds. IC50 (nM) data was obtained by 4 parameter curve fitting (see Table 1).

Another assay has as its target T3, Recombinant human TRKB (Homo sapiens, UniProt Q16620).
T3 construct: purchased Carna Biosciences
The assay can be described thus: In vitro activity test on TRKB kinase (HTRF KinEASE TK). The following applies: 4.77 μM ATP, 50 min. On the procedure:
as §2, §3, §4
0.037 ng/μL TRKB protein kinase, 1 μM TK Substrate-biotin polypeptide substrate, 4.77 μM ATP, 1× enzymatic buffer, 5 mM MgCl2, and 1 mM DTT. The detection plate was White Proxiplate 384-Plus plate (PerkinElmer), and incubated at room temperature for 50 min, and the assay volume was 10 μL.
as §1, §5

The target of another assay is T4, Recombinant human TRKC (Homo sapiens, UniProt Q16288).
T4 construct: purchased Carna Biosciences
T4 sequence (Q16288 32-839): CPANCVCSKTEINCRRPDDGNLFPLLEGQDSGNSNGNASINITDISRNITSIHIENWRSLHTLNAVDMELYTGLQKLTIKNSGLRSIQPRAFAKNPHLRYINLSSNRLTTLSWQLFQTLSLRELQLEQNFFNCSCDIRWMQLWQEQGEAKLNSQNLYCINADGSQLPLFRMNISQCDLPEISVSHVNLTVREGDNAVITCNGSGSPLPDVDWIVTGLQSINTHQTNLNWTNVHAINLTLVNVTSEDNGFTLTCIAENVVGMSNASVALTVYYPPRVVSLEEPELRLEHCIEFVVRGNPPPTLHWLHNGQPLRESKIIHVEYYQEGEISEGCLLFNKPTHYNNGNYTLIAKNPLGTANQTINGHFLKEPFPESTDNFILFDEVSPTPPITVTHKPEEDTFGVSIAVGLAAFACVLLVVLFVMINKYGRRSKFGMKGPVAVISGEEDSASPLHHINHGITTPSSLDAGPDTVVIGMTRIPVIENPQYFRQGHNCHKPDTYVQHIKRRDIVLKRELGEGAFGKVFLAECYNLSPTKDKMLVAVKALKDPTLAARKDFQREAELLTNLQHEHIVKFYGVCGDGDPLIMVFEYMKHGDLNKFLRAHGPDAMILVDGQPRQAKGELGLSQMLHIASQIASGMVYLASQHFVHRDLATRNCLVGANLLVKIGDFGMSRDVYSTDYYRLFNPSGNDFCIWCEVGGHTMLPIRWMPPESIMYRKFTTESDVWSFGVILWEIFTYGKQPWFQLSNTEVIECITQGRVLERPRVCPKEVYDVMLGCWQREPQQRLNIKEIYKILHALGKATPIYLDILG
Description: In vitro activity test on TRKC kinase (HTRF KinEASE TK). The following applies: 25.64 μM ATP, 40 min. On the procedure:
as §2, §3, §4
0.037 ng/μL TRKC protein kinase, 1 μM TK Substrate-biotin polypeptide substrate, 25.64 μM ATP, 1× enzymatic buffer, 5 mM MgCl2, and 1 mM DTT. The detection plate was White Proxiplate 384-Plus plate (PerkinElmer), and incubated at room temperature for 40 min, and the assay volume was 10 μL.
as §1, §5

T3 sequence (Q16620 32-822): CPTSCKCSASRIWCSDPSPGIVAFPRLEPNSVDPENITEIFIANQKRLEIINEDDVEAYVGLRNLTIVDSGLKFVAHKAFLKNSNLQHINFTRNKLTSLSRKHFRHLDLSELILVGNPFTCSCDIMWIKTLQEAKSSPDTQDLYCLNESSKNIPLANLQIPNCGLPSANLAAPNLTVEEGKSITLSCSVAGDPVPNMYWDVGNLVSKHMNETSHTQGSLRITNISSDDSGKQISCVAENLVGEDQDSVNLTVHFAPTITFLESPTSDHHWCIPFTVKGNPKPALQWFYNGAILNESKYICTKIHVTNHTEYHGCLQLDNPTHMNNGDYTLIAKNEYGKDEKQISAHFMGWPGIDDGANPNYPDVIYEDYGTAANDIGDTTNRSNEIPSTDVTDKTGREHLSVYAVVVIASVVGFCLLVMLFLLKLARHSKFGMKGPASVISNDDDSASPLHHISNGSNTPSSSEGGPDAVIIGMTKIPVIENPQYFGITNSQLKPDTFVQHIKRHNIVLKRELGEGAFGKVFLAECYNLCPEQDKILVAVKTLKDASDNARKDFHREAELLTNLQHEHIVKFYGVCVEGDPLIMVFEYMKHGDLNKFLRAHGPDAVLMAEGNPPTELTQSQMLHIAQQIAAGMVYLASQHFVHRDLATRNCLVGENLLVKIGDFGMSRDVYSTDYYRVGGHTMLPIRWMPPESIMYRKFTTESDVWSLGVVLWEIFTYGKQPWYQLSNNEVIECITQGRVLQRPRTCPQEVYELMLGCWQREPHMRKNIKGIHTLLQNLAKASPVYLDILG
T1 sequence (P04629 33-796 G595R): as the sequence (P04629 33-796) above, with G563R counted along it

As for `OC1CCC(Nc2ccnc3ccc(N4CCC[C@@H]4c4cc(F)ccc4F)nc23)C1` (stereo partly drawn) [Example 1, 3-((6-((R)-2-(2,5-difluorophenyl)pyrrolidin-1-yl)-1,5-naphthyridin-4-yl)amino)cyclopentane-1-ol], the IC50 was less than 50 nM in assay [1], less than 10 nM on Recombinant human TRKA, less than 50 nM on Recombinant human TRKB and less than 10 nM on Recombinant human TRKC.

Regarding `O[C@@H]1CCN(c2ccnc3ccc(N4CCC[C@@H]4c4cc(F)ccc4F)nc23)C1` [Example 3, (R)-1-(6-((R)-2-(2,5-difluorophenyl)pyrrolidin-1-yl)-1,5-naphthyridin-4-yl)pyrrolidin-3-ol], the 50% inhibitory concentration (IC50) at Recombinant human TRKA is less than 150 nM; on Recombinant human TRKB, less than 500 nM; at Recombinant human TRKC, less than 500 nM.

In the case of `CN(C)c1ccnc2ccc(N3CCC[C@@H]3c3cc(F)ccc3F)nc12` [Example 4, (R)-6-(2-(2,5-difluorophenyl)pyrrolidin-1-yl)-N,N-dimethyl-1,5-naphthyridin-4-amine], the 50% inhibitory concentration (IC50) at Recombinant human TRKA, on Recombinant human TRKB and on Recombinant human TRKC was less than 10 nM in each case.

`O[C@H]1CCN(c2ccnc3ccc(N4CCC[C@@H]4c4cc(F)ccc4F)nc23)C1` [Example 5, (S)-1-(6-((R)-2-(2,5-difluorophenyl)pyrrolidin-1-yl)-1,5-naphthyridin-4-yl)pyrrolidin-3-ol]: the IC50 on Recombinant human TRKA was less than 100 nM; on Recombinant human TRKB, less than 500 nM; on Recombinant human TRKC it was less than 150 nM.

In the case of `OCCNc1ccnc2ccc(N3CCC[C@@H]3c3cc(F)ccc3F)nc12` [Example 6, (R)-2-((6-(2-(2,5-Difluorophenyl)pyrrolidin-1-yl)-1,5-naphthyridin-4-yl)amino)ethan-1-ol], the IC50 on Recombinant human TRKA is less than 100 nM; at Recombinant human TRKB it was less than 500 nM; on Recombinant human TRKC, less than 500 nM.

On to `O=C(Nc1ccnc2ccc(N3CCC[C@@H]3c3cc(F)ccc3F)nc12)c1cnc(N2CC[C@H](O)C2)nc1` [Example 8, N-(6-((R)-2-(2,5-difluorophenyl)pyrrolidin-1-yl)-1,5-naphthyridin-4-yl)-2-((S)-3-hydroxypyrrolidin-1-yl)pyrimidin-5-carboxamide], for which the IC50 is less than 10 nM on Recombinant human TRKA, less than 1 nM on Recombinant human TRKB and less than 10 nM on Recombinant human TRKC.

With `COc1ccc(CNc2ccnc3ccc(N4CCC[C@@H]4c4cc(F)ccc4F)nc23)cc1` [Example 9, (R)-6-(2-(2,5-Difluorophenyl)pyrrolidin-1-yl)-N-(4-methoxybenzyl)-1,5-naphthyridin-4-amine], the IC50 on Recombinant human TRKA, at Recombinant human TRKB and at Recombinant human TRKC was less than 50 nM throughout.

For the molecule `O=C1CC(n2cc(-c3ccnc4ccc(N5C[C@@H](F)C[C@@H]5c5cc(F)ccc5F)nc34)cn2)CCN1` (stereo partly drawn) [Example 19, 4-(4-(6-((2R,4S)-2-(2,5-difluorophenyl)-4-fluoropyrrolidin-1-yl)-1,5-naphthyridin-4-yl)-1H-pyrazol-1-yl)piperidin-2-one], the half-maximal inhibitory concentration (IC50) on Recombinant human TRKA was less than 10 nM; on Recombinant human TRKB, less than 500 nM; on Recombinant human TRKC, less than 500 nM.

Consider `Fc1ccc(F)c([C@H]2C[C@H](F)CN2c2ccc3ncc(Cl)c(-c4cnn([C@H]5CCCNC5)c4)c3n2)c1` [Example 55, 7-chloro-2-((2R,4S)-2-(2,5-difluorophenyl)-4-fluoropyrrolidin-1-yl)-8-(1-((S)-piperidin-3-yl)-1H-pyrazol-4-yl)-1,5-naphthyridine], for which the IC50 at Recombinant human TRKA is less than 10 nM; on Recombinant human TRKB, less than 500 nM; on Recombinant human TRKC, less than 500 nM.

For the molecule `Fc1ccc(F)c([C@H]2C[C@H](F)CN2c2ccc3ncc(Cl)c(-c4cnc(N5CCNCC5)s4)c3n2)c1` [Example 60, 5-(3-Chloro-6-((2R,4S)-2-(2,5-difluorophenyl)-4-fluoropyrrolidin-1-yl)-1,5-naphthyridin-4-yl)-2-(piperazin-4-yl)thiazole], the IC50 is less than 1 nM at Recombinant human TRKA, less than 10 nM on Recombinant human TRKB and less than 1 nM at Recombinant human TRKC.

With `O=C(Nc1c(Cl)cnc2ccc(N3C[C@@H](F)C[C@@H]3c3cc(F)ccc3F)nc12)C1CCNCC1` [Example 62, N-(3-Chloro-6-((2R,4S)-2-(2,5-difluorophenyl)-4-fluoropyrrolidin-1-yl)-1,5-naphthyridin-4-yl) piperidin-4-carboxamide], at Recombinant human TRKA, the IC50 was less than 1 nM.

For the molecule `Fc1ccc(F)c([C@H]2C[C@H](F)CN2c2ccc3nncc(-c4cnn(C5CCNCC5)c4)c3n2)c1` [Example 64, 6-((2R,4S)-2-(2,5-difluorophenyl)-4-fluoropyrrolidin-1-yl)-4-(1-(piperidin-4-yl)-1H-pyrazol-4-yl)pyrido[3,2-c]pyridazine], the IC50 on Recombinant human TRKA was less than 1 nM.

`O[C@H]1CCN(c2nc(-c3ncnc4ccc(N5C[C@@H](F)C[C@@H]5c5cc(F)ccc5F)nc34)no2)C1` [Example 68, (S)-1-(3-(6-((2R,4S)-2-(2,5-difluorophenyl)-4-fluoropyrrolidin-1-yl)pyrido[3,2-d]pyrimidin-4-yl)-1,2,4-oxadiazol-5-yl)pyrrolidin-3-ol]: the IC50 in assay [1] was less than 10 nM; on Recombinant human TRKA, less than 1 nM; on Recombinant human TRKB, less than 10 nM; at Recombinant human TRKC, less than 10 nM.

As to `Fc1ccc(F)c([C@H]2C[C@H](F)CN2c2ncc3ncnc(-c4cnn(C5CCNCC5)c4)c3n2)c1` [Example 76, 2-((2R,4S)-2-(2,5-difluorophenyl)-4-fluoropyrrolidin-1-yl)-8-(1-(piperidin-4-yl)-1H-pyrazol-4-yl)pyrimido[5,4-d]pyrimidine], the IC50 in assay [1] is less than 10 nM; at Recombinant human TRKA it was less than 1 nM; at Recombinant human TRKB, less than 10 nM; at Recombinant human TRKC, less than 10 nM.

`OC1CCN(c2nc(-c3ncnc4ccc(N5C[C@@H](F)C[C@@H]5c5cc(F)ccc5F)nc34)no2)CC1` [Example 80, 1-(3-(6-((2R,4S)-2-(2,5-difluorophenyl)-4-fluoropyrrolidin-1-yl)pyrido[3,2-d]pyrimidin-4-yl)-1,2,4-oxadiazol-5-yl)piperidin-4-ol]: the IC50 in assay [1] was less than 10 nM; at Recombinant human TRKA, less than 1 nM; at Recombinant human TRKB, less than 10 nM; at Recombinant human TRKC, less than 10 nM.

Turning to `Fc1ccc(F)c([C@H]2C[C@H](F)CN2c2ccc3ncnc(-c4noc(C5CCNCC5)n4)c3n2)c1` [Example 81, 3-(6-((2R,4S)-2-(2,5-difluorophenyl)-4-fluoropyrrolidin-1-yl)pyrido[3,2-d]pyrimidin-4-yl)-5-(piperidin-4-yl)-1,2,4-oxadiazole], the IC50 in assay [1] is less than 10 nM; on Recombinant human TRKA, less than 1 nM; on Recombinant human TRKB, less than 10 nM; on Recombinant human TRKC, less than 10 nM.

As for `Fc1ccc(F)c([C@H]2C[C@H](F)CN2c2ccc3ncc(F)c(-c4cn(C5CCNCC5)nn4)c3n2)c1` [Example 83, 2-((2R,4S)-2-(2,5-difluorophenyl)-4-fluoropyrrolidin-1-yl)-7-fluoro-8-(1-(piperidin-4-yl)-1H-1,2,3-triazol-4-yl)-1,5-naphthyridine], the IC50 was less than 10 nM in assay [1], less than 1 nM at Recombinant human TRKA, less than 10 nM on Recombinant human TRKB and less than 10 nM at Recombinant human TRKC.

With `OC1CCN(c2nc(-c3c(F)cnc4ccc(N5C[C@@H](F)C[C@@H]5c5cc(F)ccc5F)nc34)no2)CC1` [Example 84, 1-(3-(6-((2R,4S)-2-(2,5-difluorophenyl)-4-fluoropyrrolidin-1-yl)-3-fluoro-1,5-naphthyridin-4-yl)-1,2,4-oxadiazol-5-yl)piperidin-4-ol], the IC50 was less than 1 nM on Recombinant human TRKA, less than 10 nM at Recombinant human TRKB and less than 1 nM at Recombinant human TRKC.

As a reminder, the IC50 is the concentration that gives 50% inhibition.
